From US10118918B2, “PRMT5 inhibitors and uses thereof” (Epizyme, Inc., priority 2012, dated 2018)

How the values were obtained:
PRMT5/MEP50 = PRMT5/MEP50 (Homo sapiens (Human), UniProt O14744); test: PRMT5 Biochemical Assay (PRMT5/MEP50 enzyme assay on peptide substrate, 3H-SAM Flashplate); conditions: PRMT5/MEP50 4 nM, 3H-SAM 75 nM, peptide 40 nM
From the text: S-adenosylmethionine (SAM), S-adenosylhomocysteine (SAH), bicine, KCl, Tween20, dimethylsulfoxide (DMSO), bovine skin gelatin (BSG), and Tris(2-carboxyethyl)phosphine hydrochloride solution (TCEP) were purchased from Sigma-Aldrich at the highest level of purity possible. ^3H-SAM was purchase from American Radiolabeled Chemicals with a specific activity of 80 Ci/mmol. 384-well streptavidin Flashplates were purchased from PerkinElmer.
Peptide representative of human histone H4 residues 1-15 was synthesized with a C-terminal linker-affinity tag motif and a C-terminal amide cap by 21st Century Biochemicals. The peptide was high high-performance liquid chromatography (HPLC) purified to greater than 95% purity and confirmed by liquid chromatography mass spectrometry (LC-MS). The sequence was Ac-[…][K-Biot]-amide (SEQ ID NO.: 3).
Full-length human PRMT5 (NM_006109.3) transcript variant 1 clone was amplified from a fetal brain cDNA library, incorporating flanking 5′ sequence encoding a FLAG tag ([…]) (SEQ ID NO.: 4) fused directly to Ala 2 of PRMT5. Full-length human MEP50 (NM_024102) clone was amplified from a human testis cDNA library incorporating a 5′ sequence encoding a 6-histidine tag (MHHHHHH) (SEQ ID NO.: 5) fused directly to Arg 2 of MEP50. The amplified genes were sublconed into pENTR/D/TEV (Life Technologies) and subsequently transferred by Gateway™ attL x attR recombination to pDEST8 baculvirus expression vector (Life Technologies).
Recombinant baculovirus and Baculovirus-Infected Insect Cells (BIIC) were generated according to Bac-to-Bac kit instructions (Life Technologies) and Wasilko, 2006, respectively. Protein over-expression was accomplished by infecting exponentially growing Spodoptera frugiperda (SF9) cell culture at 1.2×10^6 cell/ml with a 5000 fold dilution of BIIC stock. Infections were carried out at 27° C. for 72 hours, harvested by centrifugation, and stored at −80° C. for purification.
Flag-PRMT5/6His-MeP50 was eluted with 300 mM Imidazole in the same buffer. The purity of recovered protein was 87%. Reference: Wasilko, D. J. and S. E. Lee: “TIPS: titerless infected-cells preservation and scale-up” Bioprocess J., 5 (2006), pp. 29-32.
General Procedure for PRMT5/MEP50 Enzyme Assays on Peptide Substrates.
The assays were all performed in a buffer consisting of 20 mM Bicine (pH=7.6), 1 mM TCEP, 0.005% BSG, and 0.002% Tween20, prepared on the day of use. Compounds in 100% DMSO (1 ul) were spotted into a polypropylene 384-well V-bottom plates (Greiner) using a Platemate Plus outfitted with a 384-channel head (Thermo Scientific). DMSO (1 ul) was added to Columns 11, 12, 23, 24, rows A-H for the maximum signal control and 1 ul of SAH, a known product and inhibitor of PRMT5/MEP50, was added to columns 11, 12, 23, 24, rows I-P for the minimum signal control. A cocktail (40 ul) containing the PRMT5/MEP50 enzyme and the peptide was added by Multidrop Combi (Thermo-Fisher). The compounds were allowed to incubate with PRMT5/MEP50 for 30 min at 25 degrees Celsius, then a cocktail (10 ul) containing ^3H-SAM was added to initiate the reaction (final volume=51 ul). The final concentrations of the components were as follows: PRMT5/MEP50 was 4 nM, ^3H-SAM was 75 nM, peptide was 40 nM, SAH in the minimum signal control wells was 100 uM, and the DMSO concentration was 1%. The assays were stopped by the addition of non-radioactive SAM (10 ul) to a final concentration of 600 uM, which dilutes the ^3H-SAM to a level where its incorporation into the peptide substrate is no longer detectable. 50 ul of the reaction in the 384-well polypropylene plate was then transferred to a 384-well Flashplate and the biotinylated peptides were allowed to bind to the streptavidin surface for at least 1 hour before being washed three times with 0.1% Tween20 in a Biotek ELx405 plate washer. […]

Z-138 cells = test: Z-138 Proliferation Assay (Cell Titer Glo); assay type: cell-based; conditions: 5 days incubation
From the text: [formula] Z-138 Proliferation Assay
Z-138 suspension cells were purchased from ATCC (American Type Culture Collection, Manassas, Va.). RPMI/Glutamax medium, penicillin-streptomycin, heat inactivated fetal bovine serum were purchased from Life Technologies, Grand Island, N.Y., USA. V-bottom polypropylene 384-well plates were purchased from Greiner Bio-One, Monroe, N.C., USA. Cell culture 384-well white opaque plates were purchased from Perkin Elmer, Waltham, Mass., USA. Cell-Titer Glo® was purchased from Promega Corporation, Madison, Wis., USA. SpectraMax M5 plate reader was purchased from Molecular Devices LLC, Sunnyvale, Calif., USA.
Z-138 suspension cells were maintained in growth medium (RPMI 1640 supplemented with 10% v/v heat inactivated fetal bovine serum and cultured at 37° C. under 5% CO2. Under assay conditions, cells were incubated in assay medium (RPMI 1640 supplemented with 10% v/v heat inactivated fetal bovine serum and 100 units/mL penicillin-streptomycin) at 37° C. under 5% CO2.
For the assessment of the effect of compounds on the proliferation of the Z-138 cell line, exponentially growing cells were plated in 384-well white opaque plates at a density of 10,000 cells/ml in a final volume of 50 μl of assay medium. A compound source plate was prepared by performing triplicate nine-point 3-fold serial dilutions in DMSO, beginning at 10 mM (final top concentration of compound in the assay was 20 μM and the DMSO was 0.2%). A 100 nL aliquot from the compound stock plate was added to its respective well in the cell plate. […] After addition of compounds, assay plates were incubated for 5 days at 37° C., 5% CO2, relative humidity >90%.
Cell viability was measured by quantitation of ATP present in the cell cultures, adding 35 μl of Cell Titer Glo® reagent to the cell plates. Luminescence was read in the SpectraMax M5 microplate reader. The concentration of compound inhibiting cell viability by 50% was determined using a 4-parametric fit of the normalized dose response curves.

Chain of PRMT5/MEP50 (O14744 other isoform, or with tags, fused parts or gaps): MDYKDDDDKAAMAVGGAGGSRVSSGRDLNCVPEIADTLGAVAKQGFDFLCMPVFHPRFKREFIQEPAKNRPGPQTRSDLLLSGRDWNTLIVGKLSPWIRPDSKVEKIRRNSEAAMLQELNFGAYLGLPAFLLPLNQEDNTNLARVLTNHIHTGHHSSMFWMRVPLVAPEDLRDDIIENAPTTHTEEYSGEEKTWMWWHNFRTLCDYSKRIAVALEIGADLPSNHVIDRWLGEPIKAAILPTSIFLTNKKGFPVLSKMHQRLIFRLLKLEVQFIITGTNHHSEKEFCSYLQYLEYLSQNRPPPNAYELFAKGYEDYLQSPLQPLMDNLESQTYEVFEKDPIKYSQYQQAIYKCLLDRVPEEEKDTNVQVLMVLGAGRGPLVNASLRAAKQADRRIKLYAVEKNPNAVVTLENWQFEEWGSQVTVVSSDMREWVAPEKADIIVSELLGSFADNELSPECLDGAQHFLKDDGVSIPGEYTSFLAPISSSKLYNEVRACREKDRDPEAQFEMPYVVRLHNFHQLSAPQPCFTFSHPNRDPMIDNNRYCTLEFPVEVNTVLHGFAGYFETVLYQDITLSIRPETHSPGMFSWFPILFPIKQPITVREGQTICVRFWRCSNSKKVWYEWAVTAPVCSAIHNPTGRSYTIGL
Chain of PRMT5/MEP50 (Q9BQA1 other isoform, or with tags, fused parts or gaps partner): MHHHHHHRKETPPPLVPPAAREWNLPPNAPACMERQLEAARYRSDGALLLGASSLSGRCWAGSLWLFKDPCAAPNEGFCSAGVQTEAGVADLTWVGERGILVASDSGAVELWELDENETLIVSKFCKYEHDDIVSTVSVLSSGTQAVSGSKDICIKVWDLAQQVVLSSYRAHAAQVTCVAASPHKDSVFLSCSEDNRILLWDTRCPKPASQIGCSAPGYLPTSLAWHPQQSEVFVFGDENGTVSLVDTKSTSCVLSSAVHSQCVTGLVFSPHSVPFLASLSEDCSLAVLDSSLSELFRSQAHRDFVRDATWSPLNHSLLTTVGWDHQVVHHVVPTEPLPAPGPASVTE

IC50 (PRMT5/MEP50) [µM] | Compound | EC50 (Z-138 cells; Homo sapiens, 120 h) [µM] | EC50 (Z-138 cells) [µM]
0.101 to 1 | Cc1nc(NC2COC2)cc(C(=O)NC[C@H](O)CN2Cc3ccccc3C2)n1 [compound 35] | > 20 | 
0.101 to 1 | O=C(NC[C@H](O)CN1Cc2ccccc2C1)c1cc(NC2COC2)nc(C(F)(F)F)n1 [compound 36] | 10 to 50 | 
0.101 to 1 | O=C(CCc1nc2ccccc2[nH]1)NCC(O)CN1Cc2ccccc2C1 (centres unmarked) [compound 37] | > 20 | 
< 0.1 | O=C(NC[C@H](O)CN1Cc2ccccc2C1)c1cc(NC2COC2)nc(N2CCOCC2)n1 [compound 38] | 1 to 10 | 
< 0.1 | CC(=O)N1CCC(Nc2cc(C(=O)NC[C@H](O)CN3Cc4ccccc4C3)ccn2)CC1 [compound 40] | 0.101 to 1 | 
> 10 | O=C(NC[C@H](O)CN1CCc2ccccc21)c1cc(NC2COC2)ncn1 [compound 42] | > 5 | 
> 10 | CC(=O)N1CCC(Nc2cc(C(=O)NC[C@H](O)CN3CCc4ccccc43)ncn2)CC1 [compound 43] | > 5 | 
> 10 | CC(=O)N1CCC(Nc2cc(C(=O)NC[C@H](O)CN3CCc4ccccc43)ccn2)CC1 [compound 44] | > 5 | 
> 10 | O=C(NC[C@H](O)CN1CCCCc2ccccc21)c1cc(NC2COC2)ncn1 [compound 45] | > 5 | 
> 10 | CC(=O)N1CC(Nc2cc(C(=O)NC[C@H](O)CN3CCCCc4ccccc43)ncn2)C1 [compound 46] | > 5 | 
1 to 10 | CC(=O)N1CCC(Nc2cc(C(=O)NC[C@H](O)CN3CCCCc4ccccc43)ncn2)CC1 [compound 47] | > 5 | 
> 10 | O=C(NC[C@H](O)CN1CCCc2ccccc2C1)c1cc(NC2COC2)ncn1 [compound 48] | > 5 | 
1 to 10 | CC(=O)N1CC(Nc2cc(C(=O)NC[C@H](O)CN3CCCc4ccccc4C3)ncn2)C1 [compound 49] | > 5 | 
> 10 | CC(=O)N1CCC(Nc2cc(C(=O)NC[C@H](O)CN3CCCc4ccccc4C3)ncn2)CC1 [compound 50] | > 5 | 
0.101 to 1 | N-(2-hydroxy-3-(isoindolin-2-yl)propyl)-2-((4-methyl-3,4-dihydro-2H-benzo[b][1,4]oxazin-5-yl)oxy)acetamide [compound 10] |  | > 20

Compound | IC50 (PRMT5/MEP50) [µM] | EC50 (Z-138 cells; Homo sapiens, 120 h) [µM] | EC50 (Z-138 cells) [µM]
C[C@@H](Oc1cccc2cccnc12)C(=O)NC[C@H](O)CN1Cc2ccccc2C1 [compound 5, (R)—N—((S)-2-hydroxy-3-(isoindolin-2-yl)propyl)-2-(quinolin-8-yloxy)propanamide] | < 0.1 | 1 to 10 | 
O=C(COc1ccccc1-c1cc[nH]n1)NCC(O)CN1Cc2ccccc2C1 (centres unmarked) [compound 7] | 0.101 to 1 | > 20 | 
O=C(NCC(O)CN1Cc2ccccc2C1)c1cccc(-c2ccccn2)c1 (centres unmarked) [compound 13, N-(2-hydroxy-3-(isoindolin-2-yl)propyl)-3-(pyridin-2-yl)benzamide] | 0.101 to 1 | > 20 | 
CN(C)S(=O)(=O)c1ccccc1OCC(=O)NCC(O)CN1Cc2ccccc2C1 (centres unmarked) [compound 15, 2-(2-(N,N-dimethylsulfamoyl)phenoxy)-N-(2-hydroxy-3-(isoindolin-2-yl)propyl)acetamide] | < 0.1 | 1 to 10 | 
O=C(COc1cccc2cccnc12)NCC(O)CN1Cc2ccccc2C1 (centres unmarked) [compound 19, N-(2-hydroxy-3-(isoindolin-2-yl)propyl)-2-(quinolin-8-yloxy)acetamide] | 0.101 to 1 | > 20 | 
O=C(NC[C@H](O)CN1Cc2ccccc2C1)c1cccc(NC2CCOCC2)c1 [compound 28] | < 0.1 | 10 to 50 | 
O=C(NC[C@H](O)CN1Cc2ccccc2C1)c1cc(NC2CCOCC2)ncn1 [compound 29] | < 0.1 | 1 to 10 | 
